Consider 18 compounds from PMC3447978, “High-Throughput 1,536-Well Fluorescence Polarization Assays for α1-Acid Glycoprotein and Human Serum Albumin Binding” (PLoS ONE, 2012).

Data set [1] deals with T1, α1-acid glycoprotein (AGP) (Homo sapiens, UniProt P02763). Description: biochemical.
Data set [2] has as its target T2, human serum albumin (HSA) (Homo sapiens, UniProt P02768). Description: biochemical.
Data set [3] deals with T1, α1-acid glycoprotein (AGP). Kind of data set: AGP LOPAC1280 1,536-well qHTS screen (FP).
Data set [4] deals with T2, human serum albumin (HSA). Description: HSA 96-well fluorescence polarization displacement assay (dansyl sarcosine probe, Sudlow Site II). A general note: In fluorescence polarisation assays a small probe gives low polarisation when free and higher when bound to something large.
The target in data set [5] is T2, human serum albumin (HSA). Description: in vitro.
Data set [6] concerns the target T1, α1-acid glycoprotein (AGP). Description: in vitro. To be noted: human. The procedure: (§1) This system features the proteins of interest covalently bound to the surface of silica beads through the use of proprietary attachment chemistry. The surface was designed to minimize interactions with drug molecules, thus preventing non-specific binding of test substances.
(§2) AGP or HSA protein-coated beads (Sovicell, Leipzig, Germany; distributed by ADMEcell, Emeryville, CA) were thawed at room temperature for two hours. Stock solutions of each compound were diluted to a final sample concentration of 20 µM or 50 µM. Samples (45 µL) were added to 405 µL of premixed solutions of buffer and AGP or HSA coated beads and mixed thoroughly to keep the beads suspended in solution to allow for the compounds to bind to the protein coated beads, [30]. After centrifuging, 100 µL of supernatant were transferred to a 96-well plate and analyzed on an Agilent 1100 HPLC coupled to a diode array detector.
(§3) After equilibrating the column with 50 mM ammonium acetate buffer/acetonitrile (99%/1%) at a flow rate of 500 µL/min for ∼2 minutes, compounds were detected by initiating a five minute gradient to 100% acetonitrile, held for 3 minutes, followed by a one minute gradient to 1% acetonitrile, where the composition was then maintained for the final three minutes, for a total run time of 12 minutes. The diode array detector channels were set to 230 nm, 260 nm, 300 nm, and 340 nm (bandwidth = 5 nm). Data were evaluated using the Sovicell-supplied Microsoft Excel (Redmond, WA) spreadsheets, [44].

The next data set addresses AGP protein-coated beads (Homo sapiens, UniProt P02763). Description: in vitro. To be noted: protein-coated bead Kd values. The procedure: as §1, §2, §3
Another data set has as its target HSA protein-coated beads (Homo sapiens, UniProt P02768). Description: HSA protein-coated bead assay with HPLC analysis. Type of data set: binding. To be noted: compound 50 µM. The procedure: as §1, §2, §3
For data set [7], the target named is T2, human serum albumin (HSA). Kind of data set: HSA 1,536-well fluorescence polarization displacement assay (dansyl sarcosine probe, Sudlow Site II). Type of data set: binding. More on the design: Albumin solution from human serum (HSA, Sigma-Aldrich, St. Louis, MO); purchased Sigma-Aldrich; host or cells: human serum. As to the method:
For 1,536-well format (Table 2), a 3 µL mixture of HSA and dansyl sarcosine (bound control) or 3 µL of dansyl sarcosine (unbound control) were dispensed into a 1,536-well assay plate using a BioRAPTR. The plate was centrifuged at 1,000 rpm for 15 seconds, covered and incubated for 10 minutes, and FP data were collected on a ViewLux using the optics described above.
FP was measured 15 min after compound addition. Percent inhibition was derived from the bound (i.e., protein-probe complex), or 0% neutral control, and the unbound (i.e., free probe), or 100% displaced control, respectively, by calculating their mean values, and normalizing the data using GraphPad Prism 4.

Data set [8] concerns the target T1, α1-acid glycoprotein (AGP). Kind of data set: biochemical. The source holds these as a separate data set.
[9] abbreviates: IC50 in AGP LOPAC1280 screen, validation set members present in the LOPAC1280 collection.
[10] abbreviates: read-out: HSA 1,536-well IC50 (extrapolated).
[11] abbreviates: AGP 1,536-well Screen IC50, LOPAC1280 screen, top compound concentration 144 µM.

Chain of HSA protein-coated beads (P02768 25-609): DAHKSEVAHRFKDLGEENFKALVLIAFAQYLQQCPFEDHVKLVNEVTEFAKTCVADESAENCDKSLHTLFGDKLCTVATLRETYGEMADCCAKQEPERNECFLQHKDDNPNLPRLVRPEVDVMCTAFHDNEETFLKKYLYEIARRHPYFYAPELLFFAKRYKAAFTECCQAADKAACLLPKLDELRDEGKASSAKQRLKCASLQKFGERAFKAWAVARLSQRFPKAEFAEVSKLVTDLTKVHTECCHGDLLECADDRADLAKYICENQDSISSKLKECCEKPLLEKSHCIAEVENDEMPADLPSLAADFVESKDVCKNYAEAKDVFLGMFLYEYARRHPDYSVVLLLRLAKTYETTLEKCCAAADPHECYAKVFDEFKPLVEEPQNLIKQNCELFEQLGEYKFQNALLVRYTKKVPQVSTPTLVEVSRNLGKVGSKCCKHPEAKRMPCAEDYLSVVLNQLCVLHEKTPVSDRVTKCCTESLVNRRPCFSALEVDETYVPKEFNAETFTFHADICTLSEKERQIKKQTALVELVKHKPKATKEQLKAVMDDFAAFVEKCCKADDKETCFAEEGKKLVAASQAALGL
T2 sequence (P02768 25-609): as above
T1 sequence (P02763 19-201): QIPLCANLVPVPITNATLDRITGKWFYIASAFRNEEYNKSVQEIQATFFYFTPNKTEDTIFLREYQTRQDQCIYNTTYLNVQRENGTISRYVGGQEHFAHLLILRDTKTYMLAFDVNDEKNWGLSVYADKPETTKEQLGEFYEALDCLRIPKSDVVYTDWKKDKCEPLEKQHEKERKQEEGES
Chain of AGP protein-coated beads (P02763 19-201): as above

For `COc1cc2nc(N3CCN(C(=O)OCc4ccccc4)C(C(=O)NC(C)(C)C)C3)nc(N)c2cc1OC` [L-765,314], the 50% inhibitory concentration (IC50) (commonly the concentration needed to halve the response being measured) in data set [1] was determined as 2.03 µM; in data set [2], 70.8 µM; in data set [3], 14.1 µM; in data set [4] it was 5.21 µM.

Take `COc1ccc(C(CN(C)C)C2(O)CCCCC2)cc1` (centres unmarked) [Venlafaxine, venlafaxine]: the half-inhibitory concentration (IC50) in data set [5] is more than 151 µM; in [1] it was more than 1000 µM; in [3], more than 144 µM; in data set [4], more than 1000 µM.

`CCCC(=O)NCCc1c2n(c3ccc(OC)cc13)CCCc1ccccc1-2` [K 185]: the half-inhibitory concentration (IC50) in data set [1] stood at 10.5 µM; in data set [2] it was 56.2 µM; in data set [3], 20 µM; in data set [4], 83.2 µM.

Regarding `COc1ccc2c(c1)c(CC(=O)O)c(C)n2C(=O)c1ccc(Cl)cc1` [Indomethacin, indomethacin], the Kd (usually a measure of binding affinity in units of concentration) at 2 min, 50 µM in data set [6] turned out to be 78.8 µM.

As for `CN(C)CCCN1c2ccccc2Sc2ccc(Cl)cc21` [Chlorpromazine, chlorpromazine], the affinity in [6], expressed as Kd at 2 min, 50 µM, was 7.68 µM. This compound showed a 50% inhibitory concentration (IC50) in [3] (setting [9]) of 44.7 µM.

Consider `CC(C)NCC(O)COc1cccc2ccccc12` (centres unmarked) [Propranolol, propranolol], for which the “Ratio (HSA Kd / AGP Kd)” value at AGP protein-coated beads came out at 29. The compound further gave an equilibrium dissociation constant (Kd) at 2 min, 50 µM in data set [6] of 19.2 µM. The same compound yielded a Kd on HSA protein-coated beads of 548 µM. The IC50 was 50.1 µM in data set [3] (setting [9]); 48.7 µM in [3] (average IC50, intraplate control, AGP screen, LOPAC1280 screen intraplate control); 5330 µM in [4]; more than 1510 µM in data set [7] (setting [10]).

Regarding `CN(C)c1cc2c(Nc3ccc4c(cnn4Cc4ccccc4)c3)ncnc2cn1` [GW2974], the results for the IC50 in data set [2], in data set [3] and in [4] were 7.94 µM, more than 144 µM and 4.65 µM, respectively.

As to `CCC(C)N(C)C(=O)c1cc2ccccc2c(-c2ccccc2Cl)n1` (centres unmarked) [PK 11195], the half-inhibitory concentration (IC50) was more than 151 µM in data set [5] (probe dansyl sarcosine), 23.9 µM in data set [1] and 22.4 µM in data set [3].

Take `Nc1ccc2c3c(cccc13)C(=O)NC2=O` [4-Amino-1,8-naphthalimide, 4-amino-1,8-naphthalimide]: the half-inhibitory concentration (IC50) in [1] is 832 µM; in [2], 7.94 µM; in data set [3] (setting [11]) it was 11.2 µM; in data set [4], 37 µM.

On to `CC#C[C@]1(O)CC[C@H]2[C@@H]3CCC4=CC(=O)CCC4=C3[C@@H](c3ccc(N(C)C)cc3)C[C@@]21C` [Mifepristone, mifepristone], for which the 50% inhibitory concentration (IC50) in data set [5] (probe dansyl sarcosine) is more than 151 µM; in data set [1] it was 2.51 µM; in data set [3] (setting [11]) it was 6.31 µM.

`O=C1N(c2ccccc2)c2ccccc2C1(Cc1ccncc1)Cc1ccncc1` [Linopirdine, linopirdine]: the IC50 in data set [5] (probe dansyl sarcosine) was more than 151 µM; in [1], 21.7 µM; in data set [3] it was 35.5 µM.

For the compound `CN(C)CCC=C1c2ccccc2CCc2ccccc21` [Amitriptyline, amitriptyline], the “Ratio (HSA Kd / AGP Kd)” value on AGP protein-coated beads is 63. In addition, binding in data set [6] was put at a Kd at 2 min, 50 µM of 1.89 µM. The compound also returned a dissociation constant Kd on HSA protein-coated beads of 119 µM. For the same compound, the IC50 in data set [1] was 224 µM; in data set [8] it was 221 µM; in data set [4], 6750 µM; in data set [7] (read-out: HSA 1,536-well IC50), more than 1510 µM.

`Nc1nc(N)c2nc(CNc3ccc(C(=O)N[C@@H](CCC(=O)O)C(=O)O)cc3)cnc2n1` [Aminopterin, aminopterin]: the IC50 came out at 306 µM in data set [1], 8.91 µM in data set [2], 56.2 µM in data set [3] and 22 µM in data set [4].

In the case of `C=CCc1ccccc1OCC(O)CNC(C)C` (centres unmarked) [Alprenolol, alprenolol], binding in data set [6] was put at a Kd at 2 min, 50 µM of 33.8 µM. For the same compound, on HSA protein-coated beads, the “HSA Kd” value is listed as “apparent inability to bind to the HSA protein coated beads”. Moreover, the half-maximal inhibitory concentration (IC50) is 273 µM in [1], 276 µM in [8], 1700 µM in data set [4] and more than 1510 µM in data set [7] (read-out: HSA 1,536-well IC50).

In the case of `CN(C)CCCN1c2ccccc2CCc2ccccc21` [Imipramine, imipramine], the “Ratio (HSA Kd / AGP Kd)” value on AGP protein-coated beads is reported as 14. In addition, the Kd at 2 min, 50 µM in [6] stood at 10.4 µM. In addition, the Kd on HSA protein-coated beads was found to be 149 µM. Besides, the IC50 was 5200 µM in [4] and more than 1510 µM in [7] (setting [10]).

As to `OCCN(CCO)c1nc(N2CCCCC2)c2nc(N(CCO)CCO)nc(N3CCCCC3)c2n1` [Dipyridamole, dipyridamole], the Kd at HSA protein-coated beads worked out at 35.6 µM. Also, the IC50 was 40 µM in data set [2], 62.2 µM in [4] and more than 1510 µM in [7] (read-out: HSA 1,536-well IC50).

Take `OCc1ccc(-c2nn(Cc3ccccc3)c3ccccc23)o1` [YC-1]: the IC50 in [1] turned out to be 4.83 µM; in data set [2] it was 44.7 µM; in data set [3] (setting [11]) it was 5.62 µM; in data set [4], 5.07 µM.

In turn, `CCCCC1C(=O)N(c2ccccc2)N(c2ccccc2)C1=O` [Phenylbutazone, phenylbutazone] showed a dissociation constant (Kd) at 2 min, 50 µM in data set [6] of 247 µM. Moreover, the values for the IC50 in data set [1] and in data set [8] were more than 1000 µM and 1050 µM, respectively.
